Consider 15 molecules from patent publication US10988444B2, “Antimicrobial compounds” (NEWSOUTH INNOVATIONS PTY LIMITED, priority 2016, dated 2021).

In experiment [1] the test system is E. coli. In words: Minimal inhibitory concentration (MIC) determination, Example 1. Type of experiment: cell-based. To be noted: 24 h, MHB, 37° C.; for MIC: Escherichia coli, read-out: Minimum inhibitory concentration (MIC) E. coli. Here is the method: (§1) The antibacterial activity of the compounds was determined by the determination of minimal inhibitory concentration (MIC) by following the previously published protocol (see Nizalapur, S.; Ho, K. K.; Kimyon, Ö.; Yee, E.; Berry, T.; Manefield, M.; Cranfield, C. G.; Willcox, M.; Black, D. S.; Kumar, N. Org. Biomol. Chem. 2016, 14, 3623). The compounds to be tested were dissolved and diluted in autoclaved Millipore water. A single colony of bacteria was cultured overnight in TSB at 37° C. The resulting bacteria were collected by centrifugation and re-suspended in the same volume of MHB twice. Optical density (OD) of the resulting culture was adjusted to 0.1 at 600 nm (10^8 CFU/mL) in MHB, and the adjusted culture was further diluted to […] in MHB. Then, 100 μL of the bacterial solution was added to wells of a 96-well plate containing 100 μL of serially diluted compound. Two controls were also prepared: one containing 100 μL of MHB media and 100 μL sterile water, and the other containing 100 μL of bacterial solution and 100 μL sterile water. […] The MIC value was determined as the lowest concentration of compound that inhibited the complete growth of the bacteria (i.e. OD similar to that of the control having no bacteria). Each experiment was performed in triplicate and was repeated in three independent experiments.
(§2) The results of the MIC assay are given below in Table 1.

Experiment [2] deals with S. aureus. The experiment is described as above. Type of experiment: cell-based. The note with it: MHB, 37° C., 24 h; for MIC: Staphylococcus aureus, read-out: Minimum inhibitory concentration (MIC) S. aureus. Here is the method: as §1, §2
For experiment [3], the system named is E. coli. In words: Biofilm disruption assay, established biofilms, crystal violet staining. Type of experiment: cell-based. The note with it: 250 μM, 24 h treatment. As for the experimental part: (§3) Bacterial cultures were grown in TSB media for overnight at 37° C. with shaking at 150 r.p.m. Cultures were diluted (1:20) in YPD medium and 200 μl aliquots were dispensed to flat bottom 96-well plate wells (Sarstedt Australia). Cultures were supplemented with varying concentrations of synthetic compounds dissolved in water. For pre-established biofilm assay, cultures were grown in 96-well plate wells overnight prior to supplementation with synthetic compounds. Control cultures were supplemented with an equal amount of DMSO. Plates were sealed with self-adhesive microplate sealers (TopSeal-A, PerkinElmer) to allow air diffusion and to prevent condensation. Cultures were incubated overnight at 37° C. with shaking at 150 r.p.m. Biofilms adhered on polystyrene substratum were quantified by crystal violet staining as described previously (see Wiegand, I.; Hilpert, K.; Hancock, R. E. W. Nat. Protocols 2008, 3 (2), 163-175). All cultures were prepared in triplicates. Error bars represent the standard error of three independent experiments (n=3).
(§4) The biofilm disruption activities of the compounds were investigated using crystal violet staining according to a previously published protocol (G. A. O'Toole, J Vis Exp, 2011, (47), pii: 2437, DOI: 10.3791/2437, 2437). The ability of compounds (34-38, 51-56, 61, 62, 65 and 66) to disrupt the established biofilms of the Gram-positive bacteria S. aureus and the Gram-negative bacteria Pseudomonas aeruginosa, Serratia marcescens and E. coli, was determined at a concentration of 250 μM. In this assay, bacterial cultures were grown on a polystyrene substratum overnight prior to treatment with the compounds. In addition, the ability of these compounds to inhibit the formation of biofilms of P. aeruginosa and S. marcescens was also investigated at 250 μM, whereby the bacterial cultures were grown in the presence of test compounds.

Experiment [4] concerns S. marcescens. Briefly: Biofilm inhibition assay (inhibition of biofilm formation), crystal violet staining. Type of experiment: cell-based. To be noted: Serratia marcescens, 24 h. Here is the method:
as §3, with “no-established” for “pre-established”, “along” for “prior to supplementation”, “water.” for “DMSO.”
as §4

Experiment [5] has as its system S. marcescens. In words: Biofilm disruption assay, established biofilms, crystal violet staining. Type of experiment: cell-based, Serratia marcescens. The note with it: 250 μM, 24 h treatment. As for the experimental part:
as §3, §4

Experiment [6] relates to S. aureus. The experiment is described as above. Type of experiment: cell-based. To be noted: 250 μM, 24 h treatment. Here is the method:
as §3, §4

The test system of experiment [7] is Pseudomonas aeruginosa (PAO1). Described as above. Type of experiment: cell-based. The note with it: 250 μM, 24 h treatment. Here is the method: as §3, §4
The subject of experiment [8] is S. aureus (SA38). Briefly: Minimal inhibitory concentration (MIC) assay, broth micro dilution, Example 3. Type of experiment: cell-based. The note with it: Staphylococcus aureus; SA38, MHB, 37° C., 18-24 hours; read-out: Minimum inhibitory concentration (MIC) S. aureus. As for the experimental part:
(§5) Compounds 95, 96, 106, 107, 109, 117 were assessed by determining their minimum inhibitory concentration (MIC) according through broth micro dilution assay using the procedure described by M. A. Wikler, Methods for dilution antimicrobial susceptibility tests for bacteria that grow aerobically: approved standard, Clinical and Laboratory Standards Institute, 2006. Briefly, bacteria were grown to mid-log phase in Muller Hinton broth (MHB) with shaking at 120 rpm and incubated at 37° C. for 18-24 hours. Following incubation, bacteria were washed three times in PBS pH 7.4 at 3500 g for 10 minutes. After washing, bacteria were diluted with fresh MHB. The turbidity of the bacterial suspensions were adjusted so that OD660 nm was 0.1, which gave 1×10^8 cfu/ml, and then further diluted to achieve 1-2×10^5 cfu/ml as a final bacterial concentration. Each compound was diluted (250-3.9 μM) through two-fold dilution. Wells in microtitre plates were loaded with 100 μl of inoculum containing 1-2×10^5 cfu/ml bacteria. Wells without any compound and containing only bacteria were used as a negative control (i.e. no inhibition of growth). Wells without bacteria but containing compound acted as another control. The microtitre plate was wrapped with paraffin to prevent evaporation and incubated with shaking at 120 rpm and 37° C. for 18-24 hours. After incubation, spectrophotometric reading was taken. The well without any bacterial growth and showing zero spectrophotometric reading regarded as mic of the compounds.

The subject of experiment [9] is E. coli (K12). Described as above. Type of experiment: cell-based. To be noted: Escherichia coli; K12, MHB, 37° C., 18-24 hours; read-out: Minimum inhibitory concentration (MIC) E. coli. Here is the method: as §5

In brackets after ≈: the same amount, converted by molar mass.

Turning to `Cl.N=C(N)NCCCNC(=O)C(=O)c1ccccc1NC(=O)c1ccc2ccccc2c1` [Compound 34, N-(2-(2-((3-Guanidinopropyl)amino)-2-oxoacetyl)phenyl)-2-naphthamide hydrochloride], the results for the MIC in [1] and in [2] were over 110 µg/mL and 23 µg/mL, respectively.
As for `Cl.N=C(N)NCCCNC(=O)C(=O)c1cc(F)ccc1NC(=O)c1ccc2ccccc2c1` [Compound 37, N-(4-Fluoro-2-(2-((3-guanidinopropyl)amino)-2-oxoacetyl)phenyl)-2-naphthamide hydrochloride], in [3], the “disruption of established biofilms of E. coli” value amounted to 53%. The MIC in [1] came to 59 µg/mL; in experiment [2] it was 30 µg/mL. Moreover, testing at 250 µM in experiment [4] gave an inhibition of 74%.
Take `Cc1ccc(NC(=O)c2ccc3ccccc3c2)c(C(=O)C(=O)NCCCNC(=N)N)c1.Cl` [Compound 38, N-(2-(2-((3-Guanidinopropyl)amino)-2-oxoacetyl)-4-methylphenyl)-2-naphthamide hydrochloride]: the results for the MIC in experiment [1] and in experiment [2] were over 110 µg/mL and 93 µg/mL, respectively.
Take `Cl.N=C(N)NCCCC[C@H](NC(=O)C(=O)c1ccccc1NC(=O)c1ccc2ccccc2c1)C(=O)O` [Compound 51, N^2-(2-(2-(2-naphthamido)phenyl)-2-oxoacetyl)-N^6-carbamimidoyllysine hydrochloride]: the MIC in experiment [1] is 66 µg/mL; in [2], 53 µg/mL. The “disruption of established biofilms of S. marcescens” value in experiment [5] came out at 48%.
As for `Cl.N=C(N)NCCCC[C@H](NC(=O)C(=O)c1cc(Br)ccc1NC(=O)c1ccc2ccccc2c1)C(=O)O` [Compound 52, N^2-(2-(2-(2-naphthamido)-5-bromophenyl)-2-oxoacetyl)-N^6-carbamimidoyllysine hydrochloride], the “disruption of established biofilms of S. aureus” value in experiment [6] came out at 42%. Also, the MIC in experiment [1] and in experiment [2] was 77 µg/mL in each case. The same molecule yielded an inhibition at 250 µM in experiment [4] of 72%.
On to `Cc1ccc(NC(=O)c2ccc3ccccc3c2)c(C(=O)C(=O)N[C@@H](CCCCNC(=N)N)C(=O)O)c1.Cl` [Compound 54, N^2-(2-(2-(2-naphthamido)-5-methylphenyl)-2-oxoacetyl)-N^6-carbamimidoyllysine hydrochloride], for which the “disruption of established biofilms of P. aeruginosa” value in experiment [7] was found to be 46%. In addition, the figures for the MIC in experiment [1] and in experiment [2] were 68 µg/mL and 54 µg/mL, respectively. Also, the “Minimum inhibitory concentration (MIC) E. coli” value in experiment [1] (hydrochloride) stood at 69 µg/mL.
As for `CC(=O)C(CCCCNC(=N)N)NC(=O)C(=O)c1ccccc1NC(=O)c1ccc2ccccc2c1.Cl` (centres unmarked) [Compound 55, N-(2-(2-((7-guanidino-2-oxoheptan-3-yl)amino)-2-oxoacetyl)phenyl)-2-naphthamide hydrochloride], the results for the MIC in [1] and in [2] were 17 µg/mL and over 140 µg/mL, respectively.
Turning to `CC(=O)C(CCCCNC(=N)N)NC(=O)C(=O)c1cc(Br)ccc1NC(=O)c1ccc2ccccc2c1.Cl` (centres unmarked) [Compound 56, N-(4-bromo-2-(2-((7-guanidino-2-oxoheptan-3-yl)amino)-2-oxoacetyl)phenyl)-2-naphthamide hydrochloride], the MIC in [1] is 19 µg/mL; in [2], over 140 µg/mL. For the same molecule, 250 µM produced 61% inhibition in experiment [4].
Take `NCCNC(=O)[C@H](Cc1c[nH]c2ccccc12)NC(=O)c1cc(Br)ccc1NC(=O)c1ccc2ccccc2c1` [Compound 95, (S)—N-(2-((1-((2-Aminoethyl)amino)-3-(1H-indol-3-yl)-1-oxopropan-2-yl)carbamoyl)-4-bromophenyl)-2-naphthamide]: the results for the MIC in [8] and in experiment [9] were 3.9 µM (≈ 2.33 µg/mL) and over 125 µM, respectively.
The like results for `NCCNC(=O)[C@H](Cc1c[nH]c2ccccc12)NC(=O)c1cc(F)ccc1NC(=O)c1ccc2ccccc2c1` [Compound 96, (S)—N-(2-((1-((2-Aminoethyl)amino)-3-(1H-indol-3-yl)-1-oxopropan-2-yl)carbamoyl)-4-fluorophenyl)-2-naphthamide] were, in that order, 7.8 µM (≈ 4.19 µg/mL) and 15.6 µM (≈ 8.39 µg/mL).
The like results for `N=C(N)NCCNC(=O)[C@H](Cc1c[nH]c2ccccc12)NC(=O)c1cc(Br)ccc1NC(=O)c1ccc2ccccc2c1` [Compound 106, (S)—N-(4-Bromo-2-((1-((2-guanidinoethyl)amino)-3-(1H-indol-3-yl)-1-oxopropan-2-yl)carbamoyl)phenyl)-2-naphthamide] were, in that order, 3.9 µM (≈ 2.5 µg/mL) and 15.6 µM (≈ 9.99 µg/mL).
On to `N=C(N)NCCNC(=O)[C@H](Cc1c[nH]c2ccccc12)NC(=O)c1cc(F)ccc1NC(=O)c1ccc2ccccc2c1` [Compound 107, (S)—N-(4-Fluoro-2-((1-((2-guanidinoethyl)amino)-3-(1H-indol-3-yl)-1-oxopropan-2-yl)carbamoyl)phenyl)-2-naphthamide], for which the MIC in experiment [8] was 1.8 µM (≈ 1.04 µg/mL); in [9] it was 125 µM (≈ 72.5 µg/mL).
In the same order, the values of `COc1ccc(NC(=O)c2ccc3ccccc3c2)c(C(=O)N[C@@H](Cc2c[nH]c3ccccc23)C(=O)NCCNC(=N)N)c1` [Compound 109, (S)—N-(2-((1-((2-Guanidinoethyl)amino)-3-(1H-indol-3-yl)-1-oxopropan-2-yl)carbamoyl)-4-methoxyphenyl)-2-naphthamide] are 7.8 µM (≈ 4.62 µg/mL) and 62.5 µM (≈ 37 µg/mL).
The like results for `CN(C)CCNC(=O)[C@H](Cc1c[nH]c2ccccc12)NC(=O)c1cc(Br)ccc1NC(=O)c1ccc2ccccc2c1` [Compound 117, (S)-2-(2-(2-(2-Naphthamido)-5-bromobenzamido)-3-(1H-indol-3-yl)propanamido)-N,N-dimethylethan-1-aminium chloride] were, in that order, 7.8 µM and 125 µM.
With Gentamicin [reference compound], the “Minimum inhibitory concentration (MIC) E. coli” value in experiment [1] is 2.5 µg/mL. Also, the “Minimum inhibitory concentration (MIC) S. aureus” value in experiment [2] was under 0.6 µg/mL.
